Experimental data as given in the NIST ThermoML archive (doi:10.1021/je400218d).
± gives the expanded uncertainty stated by the source.

Details: 298.15 K; 101.33 kPa; Crystal; Pycnometric method

molar volume: 0.000268 ± 1.6e-05 m3/mol
Structure (SMILES): CC1=C(C(=O)O)N2C(=O)[C@@H](NC(=O)[C@H](N)C3=CCC=CC3)[C@H]2SC1 [Cefradin]
